Laboratory results as given in ChEMBL document CHEMBL1201862, “PubChem BioAssay data set” (2004).
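Results reflect a 48-hour exposure of cells in 96-well plates to compound at five concentrations. Abbreviation: GI50, concentration required for 50% inhibition of growth.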 Active and inactive are the calls of the source. No stated cut-off is given here; in the data, active = GI50 up to about 1.1 µM and inactive = higher.

How the values were obtained:
Assay in all cases: growth of human tumour cells (NCI), 48 h
[1] = system: SNB-78
[2] = system: HOP-18
[3] = system: DLD-1
[4] = system: LXFL 529
[5] = system: RXF 631
[6] = system: XF498
[7] = system: DMS-114
[8] = system: Hs-578T
[9] = system: MDA-N

Measured: GI50

O=C(CC1(O)C(=O)Nc2ccc(Br)cc21)c1cccc([N+](=O)[O-])c1 (stereo unspecified)
inactive: [1] 37.8 µM | [2] 23.6 µM | [3] 34.5 µM | [4] 22.5 µM | [5] > 100 µM

COc1ccc(-c2cc(O)c3cc(Cl)ccc3n2)cc1
inactive: [1] > 100 µM | [2] 54.5 µM | [3] > 100 µM | [4] > 100 µM | [6] > 100 µM | [7] > 100 µM | [5] > 100 µM

CN1c2ccccc2N(C)C23N(C)c4ccccc4N(C)C12N(C)c1ccccc1N3C (stereo unspecified)
inactive: [3] > 100 µM | [6] 49.1 µM | [7] > 100 µM | [5] > 100 µM

CCC12CCC(O)C1N(C)CCC2Sc1ccccc1 (stereo unspecified)
inactive: [1] > 100 µM | [2] 46.7 µM | [6] 26.4 µM | [7] 82.4 µM | [5] > 100 µM

O=C1C2C3C=CC(C2C(=O)N1CO)C1C2C(=O)N(CO)C(=O)C2C31 (stereo unspecified)
inactive: [1] > 100 µM | [2] 43.4 µM | [3] > 46.9 µM | [4] > 81.1 µM | [6] > 100 µM | [7] 42 µM | [5] > 54.6 µM

COc1ccc(/C(Cl)=C(\C=O)c2ccc(Cl)cc2)cc1
inactive: [1] 6.85 µM | [2] 30.3 µM | [3] 4.85 µM | [4] 9.23 µM | [7] 4.15 µM | [5] 3.64 µM

Cc1cn([C@@H]2C[C@H](CO)[C@@H](O)C2)c(=O)[nH]c1=O
inactive: [1] > 100 µM | [2] > 100 µM | [3] > 100 µM | [4] > 100 µM | [6] > 100 µM | [7] > 100 µM | [5] > 100 µM

CCC1CN2CCc3cc(OC)c(OC)cc3C2CC1CC1c2cc(OC)c(OC)cc2CCN1C(=O)C(Cc1c[nH]c2ccccc12)NC(=O)OC(C)(C)C (stereo unspecified)
inactive: [1] 15.5 µM | [8] 2.08 µM | [9] 1.97 µM | [2] 4.13 µM | [3] 8.39 µM | [4] 3.94 µM | [6] 1.78 µM | [7] 1.38 µM

O=c1cc(-c2ccc(Cl)cc2)oc2cc(OCCCOc3ccc4c(=O)cc(-c5ccc(Cl)cc5)oc4c3)ccc12
inactive: [1] > 100 µM | [2] > 100 µM | [3] > 100 µM | [4] > 100 µM | [6] > 100 µM | [7] > 100 µM | [5] > 100 µM

CNc1ccc2ncccc2c1[N+](=O)[O-]
inactive: [1] > 100 µM | [2] > 100 µM | [3] > 100 µM | [4] > 100 µM | [6] > 100 µM | [7] > 100 µM | [5] > 100 µM

COC(=O)/C(C=O)=C/Sc1ccccc1
inactive: [1] 26.5 µM | [2] > 100 µM | [3] 21.4 µM | [4] 18.3 µM | [6] 40 µM | [7] 16.7 µM | [5] 14.9 µM

CC1=NOC(=O)/C1=C/c1ccc([N+](=O)[O-])cc1
inactive: [1] > 100 µM | [2] > 100 µM | [3] > 100 µM | [6] > 100 µM | [7] > 100 µM | [5] > 100 µM

CC1=CC2CC(C)C1(C)CCc1ccoc12 (stereo unspecified)
inactive: [1] > 100 µM | [2] > 100 µM | [3] > 100 µM | [4] > 100 µM | [6] > 100 µM | [7] > 100 µM | [5] > 100 µM

O=C(CCc1nnc2s/c(=C\c3ccccc3Cl)c(=O)n12)Nc1cc(Cl)ccc1Cl
inactive: [1] > 100 µM | [2] > 100 µM | [3] > 100 µM | [4] > 100 µM | [6] 70.8 µM | [7] > 100 µM

COc1ccc(-c2ccccc2)c(N/N=C2\CCCNC2=O)c1
inactive: [1] 93.5 µM | [2] > 100 µM | [3] > 100 µM | [4] > 100 µM | [6] 18.7 µM | [7] > 100 µM

COC(=O)C1=C(C[S+]([O-])c2ccccc2[N+](=O)[O-])ON(C)C1c1ccccc1 (stereo unspecified)
inactive: [1] 82 µM | [2] 52.2 µM | [3] 30.9 µM | [4] 42 µM | [6] 31.1 µM | [7] 24.7 µM
